What was measured:
JB6 P+ cells = assay: Anchorage-independent cell growth assay (EGF-induced neoplastic transformation); assay type: cell-based, mouse; settings: EGF 10 ng/ml, different concentrations
Description: Cells were exposed to EGF (10 ng/ml) and treated with increasing concentrations of compound 1. Representative photographs are shown and data are presented as mean values±S.D. from triplicate experiments. […] Cells were treated with different concentrations of compound 1 for several days and cell proliferation was determined by a crystal violet staining assay.
Cells (8×10^3/well) were seeded into 6-well plates with 0.3% Basal Medium Eagle agar containing 10% FBS with epidermal growth factor (EGF, 10 ng/ml) and different concentrations of compound 1 and then cultured for 1 to 2 weeks. Colonies were scored under a microscope using the Image-Pro PLUS (v6.) computer software program (Media Cybernetics. Rockville, Md.).

TOPK = target: T1, TOPK (Homo sapiens, UniProt Q96KB5); assay: Pull-down assay with HaCaT cell lysates; assay type: binding; settings: HaCaT cell lysates 500 μg, Western blot
T1 construct: endogenous in cells; host or cells: HaCaT
T1 sequence (Q96KB5 1-322): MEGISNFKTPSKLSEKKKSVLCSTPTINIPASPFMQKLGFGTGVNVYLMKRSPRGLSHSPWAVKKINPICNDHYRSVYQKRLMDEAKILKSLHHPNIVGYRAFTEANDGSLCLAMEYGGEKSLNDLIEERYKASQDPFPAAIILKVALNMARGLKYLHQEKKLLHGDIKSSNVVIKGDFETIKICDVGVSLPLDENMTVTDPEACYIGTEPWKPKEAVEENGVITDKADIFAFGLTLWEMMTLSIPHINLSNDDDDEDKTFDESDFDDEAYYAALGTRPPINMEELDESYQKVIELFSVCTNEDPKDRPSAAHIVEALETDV
Description: (§1) Active TOPK (200 ng) was incubated with different concentrations of ATP (0, 10 or 100 μM) and then mixed with compound 1-conjugated Sepharose 4B beads or Sepharose 4B beads. Proteins were pulled down and analyzed by Western blot. Data are representative of 3 independent experiments that gave similar results. FIGS. 2C and 2D show compound 1 binds to either TOPK (2C) or MEK1/2 (2D) ex vivo. Lysates from HaCaT cells (500 μg) were incubated with compound 1-conjugated Sepharose 4B beads or Sepharose 4B beads alone and the pulled-down proteins were analyzed by Western blot. Data are representative of 3 independent experiments that gave similar results. FIGS. 2E and 2F show compound 1 inhibits TOPK kinase (2E) activity but not MEK1 kinase (2F) activity in vitro. Active TOPK (200 ng) was mixed with compound 1 (0, 0.5, 1, 3, or 5 μM) or HI-032 (TOPK inhibitor, 10 μM) and then incubated with a [γ-^32P] ATP mixture. Similarly, MEK1 (200 ng) was mixed with compound 1 (0, 0.5, 1, 3, 5, or 10 μM) or PD098059 (MEK1 inhibitor, 5 μM) and then incubated with a [γ-^32P] ATP mixture. For 2E and 2F, the results are visualized by autoradiography and Coomassie blue staining serves as a loading control. Data are representative of 3 independent experiments that gave similar results. […]

active TOPK = target: T2, active TOPK (Homo sapiens, UniProt Q96KB5); assay: In vitro kinase assay ([γ-32P] ATP, autoradiography); assay type: biochemical; settings: 0.5, 1, 3 or 5 μM
T2 construct: purchased SignalChem (Richmond, BC, Canada)
T2 sequence (Q96KB5 1-322): T1 sequence (Q96KB5 1-322)
Description: as §1, with “control.” for “control. Data are representative of 3 independent experiments that gave similar results.”
The in vitro kinase assay was conducted according to the instructions provided by Millipore (Billerica, Mass.). […] The relative amounts of incorporated radioactivity were assessed by autoradiography.

O=C1Nc2ccc(C34CC5CC(CC(C5)C3)C4)cc2C1=NO [compound 1, 5-(adamantan-1-yl)-3-(hydroxyimino)indolin-2-one]
EGF-induced colony formation (JB6 P+ cells): attenuated | binding of TOPK to compound-conjugated beads (TOPK): detected in the compound 1-conjugated beads group but not in the beads only group | TOPK kinase activity (active TOPK): effectively inhibited
